The record followed here is ChEMBL document CHEMBL1146625, “The kinetics of binding to p38MAP kinase by analogues of BIRB 796” (Bioorg Med Chem Lett, 2003).

The structures appear in SMILES notation.

The first experiment deals with T1, Mitogen-activated protein kinase 14 (Homo sapiens, UniProt Q16539). In words: Binding affinity for Mitogen-activated protein kinase p38 alpha.
T1 sequence (Q16539 whole entry): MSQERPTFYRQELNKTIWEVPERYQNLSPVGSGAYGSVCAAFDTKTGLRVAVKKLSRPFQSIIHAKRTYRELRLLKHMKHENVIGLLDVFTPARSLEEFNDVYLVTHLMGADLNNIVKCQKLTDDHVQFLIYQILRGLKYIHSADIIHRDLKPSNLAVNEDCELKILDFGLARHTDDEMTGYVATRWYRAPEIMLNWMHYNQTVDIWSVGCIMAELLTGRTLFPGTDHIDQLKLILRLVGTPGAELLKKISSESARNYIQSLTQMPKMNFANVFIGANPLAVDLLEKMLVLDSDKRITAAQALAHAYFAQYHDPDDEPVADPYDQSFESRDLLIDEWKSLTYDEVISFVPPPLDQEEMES
Usually Kd stands for the equilibrium constant for the complex coming apart. Compound `O=C(Nc1ccc(OCCN2CCOCC2)c2ccccc12)Nc1ccnn1-c1ccccc1` returned a Kd of 2000 nM.

`Cc1ccc(-n2nc(C(C)(C)C)cc2NC(=O)Nc2ccc(CCCN3CCOCC3)c3ccccc23)cc1` showed a dissociation constant (Kd) of 1.2 nM.

The compound `CC(C)(C)c1cc(NC(=O)Nc2ccc(OCCN3CCOCC3)c3ccccc23)n(-c2ccccc2)n1` showed a Kd of 0.097 nM. `Cc1ccc(-n2nc(C(C)(C)CO)cc2NC(=O)Nc2ccc(OCCN3CCOCC3)c3ccccc23)cc1` had a Kd of 16 nM. The same measure, in the same setting: next, `Cc1ccc(-n2nc(C(C)(C)C)cc2NC(=O)Nc2ccc(OCCN3CCOCC3)c3ccccc23)cn1`: 1.1 nM. Still for that read-out and setting: the figure for `COc1cc(NC(=O)Nc2cc(C(C)(C)C)nn2-c2ccc(C)cc2)c2ccccc2c1` is 9.4 nM; for `COc1cc(NC(=O)Nc2cc(C(C)(C)C)nn2-c2ccc(C)cc2)c2ccccc2c1OCCN1CCOCC1` it is 14 nM.

For the compound `Cn1nc(C(C)(C)C)cc1NC(=O)Nc1ccc(OCCN2CCOCC2)c2ccccc12`, binding was put at a Kd of 23 nM. Compared with the last compound, the Kd is about 1.6-fold higher. In turn, `CN(C)Cc1cccc(-n2nc(C(C)(C)C)cc2NC(=O)Nc2ccc(OCCN3CCOCC3)c3ccccc23)c1` came in with a Kd of 16 nM. Same read-out and setting: next, `Cc1ccc(-n2nc(C(C)(C)C)cc2NC(=O)Nc2cccc3ccccc23)cc1`: 1.1 nM.

In the case of `CC(C)c1cc(NC(=O)Nc2ccc(OCCN3CCOCC3)c3ccccc23)n(-c2ccccc2)n1`, the Kd worked out at 5.9 nM. Still for that read-out and setting: next, `Cc1ccc(-n2nc(C(C)(C)C)cc2NC(=O)Nc2ccc(OCCN3CCOCC3)c3ccccc23)cc1CN(C)C`: 4.8 nM. Still for that read-out and setting: the figure for `Cc1ccc(-n2nc(C(C)(C)C)cc2NC(=O)Nc2ccc(OCCN3CCOCC3)c3ccccc23)cc1C(=O)O` is 2.5 nM; for `Cc1ccc(-n2nc(C(C)(C)C)cc2NC(=O)Nc2ccccc2)cc1` it is 22 nM.

The target of a further experiment is T1, Mitogen-activated protein kinase 14.
Description: Rate of association to Mitogen-activated protein kinase p38 alpha
Compound `Cc1ccc(-n2nc(C(C)(C)C)cc2NC(=O)Nc2ccc(OCCN3CCOCC3)cc2)cc1` showed a k on of 13000 M⁻¹ s⁻¹. Still for that read-out and setting: the figure for `Cc1ccc(-n2nc(C(C)(C)C)cc2NC(=O)Nc2ccc(OCCN3CCOCC3)c3ccccc23)cc1C(=O)O` is 25200 M⁻¹ s⁻¹.

A further experiment shares this target. The source holds these as a separate data set.
Description: Rate of dissociation from Mitogen-activated protein kinase p38 alpha
Regarding `Cc1ccc(-n2nc(C(C)(C)C)cc2NC(=O)Nc2ccc(OCCN3CCOCC3)cc2)cc1`, the k off stood at 0.0039 s⁻¹. Still for that read-out and setting: next, `Cc1ccc(-n2nc(C(C)(C)C)cc2NC(=O)Nc2ccc(OCCN3CCOCC3)c3ccccc23)cc1C(=O)O`: 6.2e-05 s⁻¹.
